Results as given in patent publication US8329413B2, “Glycoproteomic probes for fluorescent imaging of fucosylated glycans in vivo” (Academia Sinica, priority 2007, dated 2012).

How the values were obtained:
[1] = Fluorescence spectra and quantum yields of probes and click products; type: physicochemical; details: before click reaction
Experimental: Reactivity and click-activated fluorogenic properties of compounds 1a and 1b were tested by performing a Cu(I)-catalyzed azide-alkyne [3+2] cycloaddition (CuAAC) with model fucose analogs 2a and 2b, respectively, as shown in FIG. 3. […] As expected, the ligation reactions produced in a significant increase in fluorescence intensity. The emission maximum of 3a was 462 nm with a quantum yield of 0.36 when excited at 357 nm. […] Unfortunately, the reaction rate between alkyne probe 1a and azidofucose 2a was very slow. Although the reaction of azido probe 1b was completed in <30 min. only 10% of 1a was converted to 3a after 24 h by using the same conditions (monitored by LC-MS). […]
All chemicals were purchased as reagent grade and used without further purification. Reactions were monitored with analytical thin-layer chromatography (TLC) on silica gel 60 F254 plates and visualized under UV (254 nm) and/or by staining with 5% sulfuric acid or acidic ceric ammonium molybdate. ^1H— or ^13C-NMR spectra were measured on a Bruker DRX-500 or DRX-600 using CDCl3 or DMSO-d6 as the solvent (1H, 500 or 600 MHz; ^13C, 125 or 150 MHz). Chemical shifts (in ppm) were determined relative to either tetramethylsilane (0 ppm) or deuterated chloroform (77 ppm). […] Fluorescent excitation and emission were recorded using a HITACHI F-2000 fluorescence spectrophotometer. […]

[2] = tested on: human alpha1-acid glycoprotein (AGP); assay: Fluorescent labeling of AGP fucosylated by FucT V, SDS/PAGE visualized by UV light; type: biochemical; details: AGP fucosylated with FucT V and GDP-fucose analog 8, 9 or 10, then labeled with 1a or 1b
From the text: (§1) Briefly, fucose analogs 4 and 5 are converted to the corresponding 1-bromides, which then are substituted directly by a phosphate group. […] Therefore, TiBr4 is used instead, as described by Srivastava. The fucose-1-phosphates are converted to the corresponding GDP-fucose analogs by using 1H-tetrazole as a catalyst. The tolerability of GDP-fucose analogs 8 and 9 for human alpha-1,3-fucosyltranseferases (FucTs) II-VII is confirmed by using a standard microtiter plate assay. They are then used to elaborate the glycoconjugate substrate, human alpha1-acid glycoprotein (AGP), an acute-phase protein. As fucosylation of AGP is associated with inflammatory diseases, the degree of fucosylation of AGP could be a potential diagnostic or prognostic marker. AGP was fucosylated by using FucT V in the presence of GDP-fucose analogs 8 or 9. After gel filtration, the fucosylated AGP is labeled by using the corresponding naphthalimide 1a or 1b for 4 h at room temperature. Labeled protein is analyzed by SDS/PAGE and visualized by UV light (365 nm). […] Treated protein was separated by SDS/PAGE and visualized by UV light (Top) and Coomassie blue staining (CBB) (Middle). (Bottom) Modified GDP-fucose.
Human alpha1-acid glycoprotein (0.33 mg/mL), pretreated with alpha-fucosidase, was incubated with human alpha-1,3-fucosyltransferase V (100 mU/mL) in MOPS buffer (50 mM, pH 7.2) containing 150 mM NaCl, 10 mM MnCl2, 4 mM ATP, 0.2 mM GDP-fucose analog (8-10). After incubation at 37° C. for 8 h, additional GDP-fucose derivative (final 0.4 mM) was added and the reaction mixture was incubated at 37° C. for 12 h. […]
The fucosylated glycoconjugate was dissolved in HEPES buffer (50 mM, pH 7.6), and added to a solution containing CuSO4 (0.2 mM), 1.0 mM sodium ascorbate, the tris(triazolyl)amine ligand (20) (0.2 mM, stock in DMSO), and the appropriate naphthalimide ligation probe 1a or 1b (0.1 mM, stock in DMSO, final concentration of DMSO; 10%)). After 1 h at room temperature, the mixture was passed through NAP-5 column in water and lyophilized, and analyzed by SDS-PAGE.

[3] = Decomposition of probe 1b by LC-MS; type: physicochemical
Experimental: Bicyclic aromatic azides are known to easily decompose by thermolysis or photolysis through a highly reactive nitrene intermediate (FIG. 12).
Thus we analyzed the decomposition of 1b using LC-MS (FIG. 13). […] The compounds were monitored at 350 nm by using an Agilent SB C8 50×4.6 mm column. (a) 1b. (b) Cycloaddition reaction with 7. (c) After 12 h incubation without 7. (d) The synthesized 4-amino derivative 1c (1). See typical experimental procedure of cycloaddition for the reaction conditions.
In the presence of 6-alkyne fucose 2b, probe 1b was completely converted into the product 3b. However, without 6-alkyne fucose […], probe 1b decomposed into a fluorescent compound with a molecular weight corresponding to the 4-amino derivative 1c ([M+H]^+ 241; ca. 80% conversion after 12 h incubation at room temperature).

[4] = tested on: human alpha-1,3-fucosyltranseferases (FucTs) II-VII; assay: Standard microtiter plate assay of tolerability of GDP-fucose analogs for fucosyltransferases; type: biochemical
From the text: as §1

Row | Structure (SMILES) | fluorescence of parent probe [1] | fluorescent band of labeled AGP on SDS/PAGE under UV light (365 nm) [2] | decomposition to 4-amino derivative 1c, conversion ([3]; after 12 h incubation at room temperature, without 6-alkyne fucose) | stability of probe during labeling ([3]; during AGP labeling reaction) | tolerability as substrate for FucTs [4]
1 | CCN1C(=O)c2cccc3c(N=[N+]=[N-])ccc(c23)C1=O [Compound 1b, 4-Azido-N-ethyl-1,8-naphthalimide] | no fluorescence | clear fluorescent bands | ca. 80% | slowly decomposed into a strongly fluorescent 4-amino derivative | –
2 | C#C[C@@H]1O[C@H](OP(=O)(O)OP(=O)(O)OC[C@H]2O[C@@H](n3cnc4c(=O)[nH]c(N)nc43)[C@H](O)[C@@H]2O)[C@@H](O)[C@H](O)[C@@H]1O.CCN(CC)CC [Compound 8, Guanosine 5′-diphospho-6,7-deoxy-beta-L-galacto-hept-6-ynopyranoside triethylammonium salt] | – | – | – | – | confirmed
